≈ marks a conversion by molar mass, not a printed value. Some results are limits rather than exact numbers.

The target of one data set is human MT1 receptors (Homo sapiens, UniProt P48039). The data set is described as follows: Radioligand binding, 2-[125I]iodomelatonin competition at MT1. The note with it: cloned human MT1 in CHO cells; from IC50 by Cheng-Prusoff; mean±SD of three determinations; read-out: MT1 K i.
human MT1 receptors, sequence (P48039 whole entry): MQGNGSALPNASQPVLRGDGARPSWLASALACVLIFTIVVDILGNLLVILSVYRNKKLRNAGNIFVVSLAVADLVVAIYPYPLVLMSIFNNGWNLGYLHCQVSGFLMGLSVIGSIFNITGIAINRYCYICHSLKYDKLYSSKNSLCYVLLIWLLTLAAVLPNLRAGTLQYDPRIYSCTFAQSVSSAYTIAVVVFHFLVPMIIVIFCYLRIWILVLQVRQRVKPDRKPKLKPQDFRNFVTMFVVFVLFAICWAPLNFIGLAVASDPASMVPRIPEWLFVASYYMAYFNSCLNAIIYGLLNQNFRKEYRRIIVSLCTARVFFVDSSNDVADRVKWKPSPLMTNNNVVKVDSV
Take `COc1cccc(N(CCNC(C)=O)CCc2ccccc2)c1` [Compound 12, N ‐{2‐[(3‐Methoxyphenyl)(phenethyl)amino]ethyl}acetamide]: the Ki was above 100 nM.
Take `COc1cccc(N(CCNC(C)=O)c2ccncc2)c1` [Compound 13, N ‐{2‐[(3‐Methoxyphenyl)(pyridine‐4‐yl)amino]ethyl}acetamide]: the Ki is above 100 nM.
Still for that read-out and setting: in the case of `COc1cccc(N(CCNC(C)=O)c2cccc(O)c2)c1` [Compound 15, N ‐{2‐[(3‐Hydroxyphenyl)(3‐methoxyphenyl)amino]ethyl} acetamide] it was 53 ± 1.6 nM; in that of `COc1ccc(-c2ccccc2)c(N(C)CCNC(C)=O)c1` [Compound 18, N ‐{2‐[(4‐Methoxy‐[1,1’‐biphenyl]‐2‐yl)(methylamino)]ethyl}acetamide], 32 ± 0.8 nM.

Tested on in the next data set: not listed separately
As to the kind of experiment: Experimental lipophilicity, shake-flask n-octanol/water. Type of data set: physicochemical. The note with it: n-octanol/water (MOPS buffer); n-octanol/50 mM MOPS buffer pH 7.4, 25±1 °C; mean±SD of three; read-out: Log D oct,7.4.
Experimental: Chosen buffer was 50 mM zwitterionic MOPS (3‐morpholinopropanesulfonic acid), pH 7.4 to avoid ionic couple partitioning, with ionic strength adjusted to 0.15 M by KCl addition. Compounds, after partitioning overnight, and dilution of both phases with methanol, were dosed in the HPLC‐UV system, as detailed below. Reported log D oct,7.4 values are the mean of three measurements±standard deviation.
HPLC columns were a RP‐C18 Supelco Discovery (Supelco, Bellefonte, PA, USA), 5 μm, 150×4.6 mm i.d. for all compounds except 13, and a Phenomenex Gemini, 5 μm, 150×4.6 mm i.d. for compound 13 (Phenomenex). Elution conditions were optimized for each compound at a flow rate of 1 mL min^−1 employing mobile phases consisting of water and acetonitrile at different percentages, while UV detection was set at λ = 254 nm. For compound 13, the mobile phase consisted of a 10 mM ammonium acetate buffer pH 7.0 and methanol and the UV detection was set at λ = 281 nm.
Consider `COc1cccc(N(CCNC(C)=O)CCc2ccccc2)c1` [Compound 12, N ‐{2‐[(3‐Methoxyphenyl)(phenethyl)amino]ethyl}acetamide], for which the logD is 3.44 ± 0.02.
As for `COc1cccc(N(CCNC(C)=O)c2ccncc2)c1` [Compound 13, N ‐{2‐[(3‐Methoxyphenyl)(pyridine‐4‐yl)amino]ethyl}acetamide], the logD came to 0.41 ± 0.01.
As to `COc1cccc(N(CCNC(C)=O)c2cccc(O)c2)c1` [Compound 15, N ‐{2‐[(3‐Hydroxyphenyl)(3‐methoxyphenyl)amino]ethyl} acetamide], the logD amounted to 2.42 ± 0.02.
Same read-out and setting: in the case of `COc1ccc(-c2ccccc2)c(N(C)CCNC(C)=O)c1` [Compound 18, N ‐{2‐[(4‐Methoxy‐[1,1’‐biphenyl]‐2‐yl)(methylamino)]ethyl}acetamide] it was 3.11 ± 0.02.

Tested on in the next data set: not listed separately
As to the kind of experiment: Metabolic stability in rat liver microsomes. Type of data set: in vitro ADME. The note with it: rat liver microsomes 1 mg protein/mL, 5 μM compound, 37 °C; mean±SD. For orientation: Liver microsomes are a subcellular fraction often used to study metabolism.
Experimental: (§1) Each compound (final concentration: 5 μM) was incubated in the presence of rat or human liver microsomes (final concentration: 1 mg protein/mL) and of a NADPH‐regenerating system (final concentrations: 2 mM NADP^+, 10 mM glucose‐6‐phosphate, 0.4 U mL^−1 glucose‐6‐phosphate dehydrogenase, 5 mM MgCl2) in a 10 mM Phosphate Buffered Saline (PBS) solution, pH 7.4, at 37 °C. Compound was added after a 10 min pre‐incubation at 37 °C and. at stated time points, depending on compound kinetics, sample aliquots were withdrawn, metabolic reaction was quenched by acetonitrile addition (1 : 2), and after a centrifugation step (9000 g, 10 min, 4 °C) the supernatant was analyzed by HPLC‐UV‐VIS.
(§2) Apparent half‐lives (t1/2 in min) for the metabolic clearance of compounds were calculated from the pseudo first‐order rate constants (k) obtained by linear regression of the log chromatographic peak area versus time plots and are reported as means of three experiments±standard deviation. Intrinsic clearance (CLi) values of the compounds were calculated using the following equation: CLi (μL×min^−1×mg protein^−1)=k×V where V (μL×mg protein^−1)=incubation volume/mg protein added.
(§3) Pooled rat and human liver microsomes (20 mg/mL) were supplied by BD Biosciences (BD Biosciences, Woburn, MA, USA). Acetonitrile and methanol were HPLC grade and were supplied by Sigma‐Aldrich (Sigma‐Aldrich srl, Milan, Italy). Water was freshly bidistilled before use. All other reagents were purchased in the highest purity available.
(§4) PeakSimple 2.83 software was employed for data acquisition and HPLC peak integration. HPLC columns were a RP‐C18 Supelco Discovery (Supelco, Bellefonte, PA, USA), 5 μm, 150×4.6 mm i.d. for all compounds except 13, and a Phenomenex Gemini, 5 μm, 150×4.6 mm i.d. for compound 13 (Phenomenex). Elution conditions were optimized for each compound at a flow rate of 1 mL min^−1 employing mobile phases consisting of water and acetonitrile at different percentages, while UV detection was set at λ = 254 nm. For compound 13, the mobile phase consisted of a 10 mM ammonium acetate buffer pH 7.0 and methanol and the UV detection was set at λ = 281 nm.
In the case of `COc1cccc(N(CCNC(C)=O)CCc2ccccc2)c1` [Compound 12, N ‐{2‐[(3‐Methoxyphenyl)(phenethyl)amino]ethyl}acetamide], the “CLi Rat LM (intrinsic clearance)” value is listed as 247.3±34.2 μL min^−1 mg prot^−1.
On the same count and under the same terms, in the case of `COc1cccc(N(CCNC(C)=O)c2cccc(O)c2)c1` [Compound 15, N ‐{2‐[(3‐Hydroxyphenyl)(3‐methoxyphenyl)amino]ethyl} acetamide] it was 217.3±44.6 μL min^−1 mg prot^−1; in that of `COc1ccc(-c2ccccc2)c(N(C)CCNC(C)=O)c1` [Compound 18, N ‐{2‐[(4‐Methoxy‐[1,1’‐biphenyl]‐2‐yl)(methylamino)]ethyl}acetamide], 468.9±12.9 μL min^−1 mg prot^−1.

The same data set, now with this note: rat liver microsomes 1 mg protein/mL, 5 μM compound, NADPH-regenerating system, pH 7.4, 37 °C; mean±SD; read-out: t 1/2 Rat LM.
Regarding `COc1cccc(N(CCNC(C)=O)CCc2ccccc2)c1` [Compound 12, N ‐{2‐[(3‐Methoxyphenyl)(phenethyl)amino]ethyl}acetamide], the half-life at 5 μM came to 2.9 ± 0.5 min.
On to `COc1cccc(N(CCNC(C)=O)c2cccc(O)c2)c1` [Compound 15, N ‐{2‐[(3‐Hydroxyphenyl)(3‐methoxyphenyl)amino]ethyl} acetamide], for which the half-life at 5 μM worked out at 3.3 ± 0.6 min.
`COc1ccc(-c2ccccc2)c(N(C)CCNC(C)=O)c1` [Compound 18, N ‐{2‐[(4‐Methoxy‐[1,1’‐biphenyl]‐2‐yl)(methylamino)]ethyl}acetamide]: the half-life at 5 μM turned out to be 1.5 ± 0.1 min.

The same data set, now with this note: rat liver microsomes, versus UCM765.
Turning to `COc1cccc(N(CCNC(C)=O)c2cccc(O)c2)c1` [Compound 15, N ‐{2‐[(3‐Hydroxyphenyl)(3‐methoxyphenyl)amino]ethyl} acetamide], the “increase of rat microsomal stability compared to UCM765” value was “approximately 1.5 fold”.

Tested on in a further data set: not listed separately
As to the kind of experiment: Thermodynamic solubility, shake flask method. Type of data set: physicochemical. The settings on record: buffer pH 1.0, simulated gastric fluid, thermodynamic from solid, pH 1.0 buffer, room temperature overnight, mean±SD, triplicate, read-out: Solubility pH 1.0.
Experimental: Thermodynamic solubility values were measured in two different buffers (pH 1.0; pH 7.4) by the shake flask method.[65] 1 mg of each compound was placed in 1 mL of appropriate buffer and shaken at room temperature overnight. The resulting suspension was centrifuged (10 min, 10000 g, 20 °C) and the supernatant analyzed by HPLC‐UV. Solubility values were interpolated from calibration curves prepared from concentrated DMSO stock solutions of each compound. Reported solubility values are the mean of three measurements±standard deviation.
It consisted of a LC‐10ADvp solvent delivery module, a 20 μL Rheodyne sample injector (Rheodyne LLC, Rohnert Park, CA, USA) and a SPD‐10Avp UV‐VIS detector. PeakSimple 2.83 software was employed for data acquisition and HPLC peak integration. […] Elution conditions were optimized for each compound at a flow rate of 1 mL min^−1 employing mobile phases consisting of water and acetonitrile at different percentages, while UV detection was set at λ = 254 nm.
`COc1cccc(N(CCNC(C)=O)CCc2ccccc2)c1` [Compound 12, N ‐{2‐[(3‐Methoxyphenyl)(phenethyl)amino]ethyl}acetamide]: the solubility is above 1000 µg/mL.
Consider `COc1cccc(N(CCNC(C)=O)c2ccncc2)c1` [Compound 13, N ‐{2‐[(3‐Methoxyphenyl)(pyridine‐4‐yl)amino]ethyl}acetamide], for which the solubility is above 1000 µg/mL.
For the molecule `COc1cccc(N(CCNC(C)=O)c2cccc(O)c2)c1` [Compound 15, N ‐{2‐[(3‐Hydroxyphenyl)(3‐methoxyphenyl)amino]ethyl} acetamide], the solubility is 95.9 ± 4.2 µg/mL (≈ 319 µM).
With `COc1ccc(-c2ccccc2)c(N(C)CCNC(C)=O)c1` [Compound 18, N ‐{2‐[(4‐Methoxy‐[1,1’‐biphenyl]‐2‐yl)(methylamino)]ethyl}acetamide], the solubility was above 1000 µg/mL.

Staying with this data set, now noted: buffer pH 7.4, aqueous buffer, thermodynamic from solid, pH 7.4 buffer, room temperature overnight, mean±SD, triplicate, read-out: Solubility pH 7.4.
For `COc1cccc(N(CCNC(C)=O)CCc2ccccc2)c1` [Compound 12, N ‐{2‐[(3‐Methoxyphenyl)(phenethyl)amino]ethyl}acetamide], the solubility is 110 ± 6.9 µg/mL (≈ 351 µM).
Same read-out and setting: in the case of `COc1cccc(N(CCNC(C)=O)c2ccncc2)c1` [Compound 13, N ‐{2‐[(3‐Methoxyphenyl)(pyridine‐4‐yl)amino]ethyl}acetamide] it was 1020 ± 93.7 µg/mL (≈ 3570 µM); in that of `COc1cccc(N(CCNC(C)=O)c2cccc(O)c2)c1` [Compound 15, N ‐{2‐[(3‐Hydroxyphenyl)(3‐methoxyphenyl)amino]ethyl} acetamide], 119 ± 2.8 µg/mL (≈ 395 µM).
Still for that read-out and setting: in the case of `COc1ccc(-c2ccccc2)c(N(C)CCNC(C)=O)c1` [Compound 18, N ‐{2‐[(4‐Methoxy‐[1,1’‐biphenyl]‐2‐yl)(methylamino)]ethyl}acetamide] it was 340 ± 9.7 µg/mL (≈ 1140 µM).

Tested on in the next data set: not listed separately
The data set is described as follows: Metabolic stability in human liver microsomes. Type of data set: in vitro ADME. The settings on record: human liver microsomes 1 mg protein/mL, 5 μM compound, 37 °C; mean±SD.
Experimental: as §1, §2, §3, §4
With `COc1cccc(N(CCNC(C)=O)CCc2ccccc2)c1` [Compound 12, N ‐{2‐[(3‐Methoxyphenyl)(phenethyl)amino]ethyl}acetamide], the “CLi Human LM (intrinsic clearance)” value is given as 96.7±6.3 μL min^−1 mg prot^−1.
As for `COc1cccc(N(CCNC(C)=O)c2cccc(O)c2)c1` [Compound 15, N ‐{2‐[(3‐Hydroxyphenyl)(3‐methoxyphenyl)amino]ethyl} acetamide], the “CLi Human LM (intrinsic clearance)” value is 10.5±0.4 μL min^−1 mg prot^−1.
On the same count and under the same terms, in the case of `COc1ccc(-c2ccccc2)c(N(C)CCNC(C)=O)c1` [Compound 18, N ‐{2‐[(4‐Methoxy‐[1,1’‐biphenyl]‐2‐yl)(methylamino)]ethyl}acetamide] it was 61.9±3.8 μL min^−1 mg prot^−1.

The data set is the same for the next values; noted with them: human liver microsomes 1 mg protein/mL, 5 μM compound, NADPH-regenerating system, pH 7.4, 37 °C; mean±SD; read-out: t 1/2 Human LM.
Regarding `COc1cccc(N(CCNC(C)=O)CCc2ccccc2)c1` [Compound 12, N ‐{2‐[(3‐Methoxyphenyl)(phenethyl)amino]ethyl}acetamide], the half-life at 5 μM amounted to 7.2 ± 0.5 min.
`COc1cccc(N(CCNC(C)=O)c2cccc(O)c2)c1` [Compound 15, N ‐{2‐[(3‐Hydroxyphenyl)(3‐methoxyphenyl)amino]ethyl} acetamide]: the half-life at 5 μM was 66.2 ± 2.8 min.
Still for that read-out and setting: the same measure for `COc1ccc(-c2ccccc2)c(N(C)CCNC(C)=O)c1` [Compound 18, N ‐{2‐[(4‐Methoxy‐[1,1’‐biphenyl]‐2‐yl)(methylamino)]ethyl}acetamide]: 11.2 ± 0.7 min.

The same data set, now with this note: human liver microsomes, versus UCM765.
Consider `COc1cccc(N(CCNC(C)=O)c2cccc(O)c2)c1` [Compound 15, N ‐{2‐[(3‐Hydroxyphenyl)(3‐methoxyphenyl)amino]ethyl} acetamide], for which the “increase of human microsomal stability compared to UCM765” value is on record as “approximately 1.5 fold”.

In the next data set the target is T1, human MT2 receptors (Homo sapiens, UniProt P49286).
T1 sequence (P49286 1-362): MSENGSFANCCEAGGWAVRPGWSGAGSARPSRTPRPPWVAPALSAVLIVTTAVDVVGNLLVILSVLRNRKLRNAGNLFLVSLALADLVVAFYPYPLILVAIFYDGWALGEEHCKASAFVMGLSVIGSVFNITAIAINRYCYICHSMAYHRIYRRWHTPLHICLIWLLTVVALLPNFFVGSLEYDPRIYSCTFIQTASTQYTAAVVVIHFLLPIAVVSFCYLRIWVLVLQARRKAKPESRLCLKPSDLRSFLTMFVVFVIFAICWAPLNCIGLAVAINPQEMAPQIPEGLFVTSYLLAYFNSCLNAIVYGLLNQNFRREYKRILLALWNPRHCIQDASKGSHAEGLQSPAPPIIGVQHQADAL
The data set is described as follows: Radioligand binding, 2-[125I]iodomelatonin competition at MT2. The note with it: cloned human MT2 in CHO cells; from IC50 by Cheng-Prusoff; mean±SD of three determinations; read-out: MT2 K i.
Regarding `COc1cccc(N(CCNC(C)=O)CCc2ccccc2)c1` [Compound 12, N ‐{2‐[(3‐Methoxyphenyl)(phenethyl)amino]ethyl}acetamide], the Ki was 2.1 ± 0.15 nM.
On to `COc1cccc(N(CCNC(C)=O)c2ccncc2)c1` [Compound 13, N ‐{2‐[(3‐Methoxyphenyl)(pyridine‐4‐yl)amino]ethyl}acetamide], for which the Ki is above 100 nM.
Consider `COc1cccc(N(CCNC(C)=O)c2cccc(O)c2)c1` [Compound 15, N ‐{2‐[(3‐Hydroxyphenyl)(3‐methoxyphenyl)amino]ethyl} acetamide], for which the Ki was found to be 1.4 ± 0.15 nM.
Take `COc1ccc(-c2ccccc2)c(N(C)CCNC(C)=O)c1` [Compound 18, N ‐{2‐[(4‐Methoxy‐[1,1’‐biphenyl]‐2‐yl)(methylamino)]ethyl}acetamide]: the Ki came to 1.7 ± 0.13 nM.

What is called solubility is the dissolved amount per volume that the medium holds.
